Converted amounts (≈) assume the structure as drawn.
What was measured:
C. albicans = experiment: Minimal inhibitory concentration (MIC) of powders against C. albicans; type: cell-based, Candida albicans
Protocol: (§1) The minimal inhibitory concentration (MIC) of ZIF-L powders synthesized from a solution with a 2-Me-Im:Zn ratio of 7:1 was tested against E. coli, S. aureus and C. albicans. The same test was conducted for ZIF-8 powders, 2-Me-Im alone and Zn(NO3)2.4H2O alone. The MIC values in mg/mL are tabulated below.

S. aureus = experiment: Minimal inhibitory concentration (MIC) of powders against S. aureus; type: cell-based, Staphylococcus aureus; conditions: * = tested chemical formed precipitate in TSB medium
Protocol: as §1

E. coli = experiment: Minimal inhibitory concentration (MIC) of powders against E. coli; type: cell-based, Escherichia coli; conditions: * = tested chemical formed precipitate in TSB medium
Protocol: as §1

Cc1ncc[nH]1 [2-Me-Im, 2-methylimidazole]
MIC (C. albicans; Candida albicans): 6.2 mg/mL (≈ 75.5 mM)
MIC (S. aureus; Staphylococcus aureus): 25 mg/mL (≈ 304 mM)
MIC (E. coli; Escherichia coli): 12.5 mg/mL (≈ 152 mM)

O.O.O.O.O=[N+]([O-])[O-].O=[N+]([O-])[O-].[Zn+2] [Zn(NO3)2•4H2O, Zn(NO3)2.4H2O]
MIC, C. albicans (C. albicans): 0.8 mg/mL
MIC, S. aureus (S. aureus): >50* mg/mL
MIC, E. coli (E. coli): 3.1* mg/mL
